{"source": "ChEMBL document CHEMBL1134789", "about": "“Design, synthesis, and modeling of novel cyclic thrombin receptor-derived peptide analogues of the Ser42-Phe-Leu-Leu-Arg46 motif sequence with fixed conformations of pharmacophoric groups: importance of a Phe/Arg/NH2 cluster for receptor activation and implications in the design of nonpeptide …” (2001)", "species": "Rattus norvegicus", "assay": "Ratio concentration and the concentration of SFLLR-NH2 necessary for producing an equal relaxing effect on the isolated rat aortic rings", "assay_type": "functional, Aorta", "data": [{"molecule": "N=C(N)NCCCCCC(=O)N1CCC(C(=O)NCc2ccc(F)cc2)CC1", "values": [{"measurement": "Relative potency", "value": 37.3}]}, {"molecule": "N=C(N)NCCCCCC(=O)NCCCCNC(=O)Cc1ccc(F)cc1", "values": [{"measurement": "Relative potency", "value": 50.6}]}, {"molecule": "N=C(N)NCCCCCC(=O)NCCCCNC(=O)Cc1ccccc1", "values": [{"measurement": "Relative potency", "value": 68}]}, {"molecule": "CC(C)C[C@H](NC(=O)[C@H](CC(C)C)NC(=O)[C@H](Cc1ccccc1)NC(=O)[C@@H](N)CO)C(=O)N[C@@H](CCCN=C(N)N)C(N)=O", "values": [{"measurement": "Relative potency", "value": 1}]}, {"molecule": "CC(C)C[C@@H]1NC(=O)[C@H](CC(C)C)NC(=O)[C@H](Cc2ccccc2)NC(=O)[C@@H](N)CNC(=O)[C@@H](N)CCCCNC(=O)[C@H](CCCN=C(N)N)NC1=O", "values": [{"measurement": "Relative potency", "value": 3.3}]}, {"molecule": "CC(C)C[C@@H]1NC(=O)[C@H](CC(C)C)NC(=O)[C@@H](Cc2ccccc2)NC(=O)[C@@H](N)CNC(=O)[C@@H](N)CCCCNC(=O)[C@H](CCCNC(=N)N)NC1=O", "values": [{"measurement": "Relative potency", "value": ">500"}]}, {"molecule": "NC(N)=NCCCCCC(=O)N1CCN(C(=O)C(N)Cc2ccccc2)CC1", "note": "(configuration not stated)", "values": [{"measurement": "Relative potency", "value": 32.8}]}]}
